Positions count from the first letter of the chain named.
Tests used:
Assay in all cases: Thymol modulation of GABA concentration-response curves, two electrode voltage clamp in Xenopus oocytes
Type in all cases: cell-based
[1] = molecular target: T1, A20′S mutant Drosophila RDL receptor (Drosophila melanogaster, UniProt P25123, A319S)
T1 construct: expressed in transfected cells; host or cells: Xenopus laevis oocytes injected with cRNA
T1 sequence (P25123 45-606 A319S): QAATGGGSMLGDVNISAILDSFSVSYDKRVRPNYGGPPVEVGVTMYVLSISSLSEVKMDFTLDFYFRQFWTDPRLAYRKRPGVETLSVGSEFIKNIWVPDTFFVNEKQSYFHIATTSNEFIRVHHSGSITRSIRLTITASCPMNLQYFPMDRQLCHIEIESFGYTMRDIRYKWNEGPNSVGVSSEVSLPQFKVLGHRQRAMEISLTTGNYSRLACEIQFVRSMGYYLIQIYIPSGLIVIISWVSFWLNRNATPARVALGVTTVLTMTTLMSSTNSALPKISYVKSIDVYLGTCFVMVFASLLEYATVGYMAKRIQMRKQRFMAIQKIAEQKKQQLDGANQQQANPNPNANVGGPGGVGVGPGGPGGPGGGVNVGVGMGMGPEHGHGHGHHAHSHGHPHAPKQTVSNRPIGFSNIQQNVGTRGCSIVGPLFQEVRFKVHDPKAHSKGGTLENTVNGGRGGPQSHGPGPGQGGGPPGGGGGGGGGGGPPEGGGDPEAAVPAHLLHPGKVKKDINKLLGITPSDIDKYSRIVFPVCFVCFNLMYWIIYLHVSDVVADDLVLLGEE
Experimental: (§1) X. laevis oocyte-positive females were purchased from NASCO (Fort Atkinson, Wisconsin, USA) and maintained according to standard methods. Harvested stage V-VI Xenopus oocytes were washed in four changes of ND96 (96 mM NaCl, 2 mM KCl, 1 mM MgCl2, 1 mM CaCl2, 5 mM HEPES, pH 7.5), de-folliculated in 1.5 mg ml^−1 collagenase Type 1A for approximately 2 h, washed again in four changes of ND96 and stored in ND96 containing 2.5 mM sodium pyruvate, 0.7 mM theophylline and […].
(§2) Site directed mutagenesis was performed with the QuikChange mutagenesis kit (Agilent, La Jolla, CA). cRNA was transcribed in vitro from linearised pGEMHE cDNA template using the mMessage mMachine T7 Transcription kit (Ambion, Austin, Texas, USA). Stage V and VI oocytes were injected with 5 ng cRNA, incubated at 18 °C, and currents recorded 18–24 h post-injection.
(§3) Currents were recorded at 5 kHz and filtered at a frequency of 1 kHz. Micro-electrodes were fabricated from borosilicate glass (GC120TF-10, Harvard Apparatus, Edenbridge, Kent, UK) using a one stage horizontal pull (P-87, Sutter Instrument Company, California, USA) and filled with 3 M KCl. […] Oocytes were perfused with ND96 at a constant rate of 12 ml min^−1. Drug application was via a simple gravity fed system calibrated to run at the same rate.
(§4) Analysis and curve fitting was performed using Prism v5 (GraphPad Software, San Diego, California, USA). Concentration-response data for each oocyte was normalised to the maximum current for that oocyte. The mean and S.E.M. for a series of oocytes were fitted to the four parameter logistic equation in Prism.

[2] = molecular target: T2, A21′Q mutant Drosophila RDL receptor (Drosophila melanogaster, UniProt P25123, A320Q)
T2 construct: expressed in transfected cells; host or cells: Xenopus laevis oocytes injected with cRNA
T2 sequence (P25123 45-606 A320Q): T1 sequence (P25123 45-606 A319S) with S275A, A276Q
Experimental: as §1, §2, §3, §4

[3] = molecular target: T3, N-7′H mutant Drosophila RDL receptor (Drosophila melanogaster, UniProt P25123, N292H); settings: N-7′H RDL
T3 construct: expressed in transfected cells; host or cells: Xenopus laevis oocytes injected with cRNA
T3 sequence (P25123 45-606 N292H): T1 sequence (P25123 45-606 A319S) with N248H, S275A
Experimental: as §1, §2, §3, §4

[4] = GABA EC50 control vs +100 μM thymol
[5] = GABA concentration-response in presence of 100 μM thymol

Question: `Cc1ccc(C(C)C)c(O)c1` [Thymol, thymol] was tested. Which “Effect of thymol on GABA-induced responses” value (“Effect of thymol” below) ([1]; 100 μM thymol, 1 μM GABA) did it give?
Answer: The value was “enhance”.

Question: And the “Fold change in EC50” value [1, 4]?
Answer: The value was 5.0.

Question: And the “% Imax” value [1, 5]?
Answer: Its value is 81 ± 6%.

Question: And the “Effect of thymol” value ([2]; 100 μM thymol, 1 μM GABA)?
Answer: The value was “enhance”.

Question: What about the “Fold change in EC50” value [2, 4] of the same compound?
Answer: The value was 3.6.

Question: What about the “% Imax” value [2, 5] of the same compound?
Answer: The value was 89 ± 4%.

Question: What about the “Effect of thymol” value ([3]; 100 μM thymol, 1 μM GABA) of the same compound?
Answer: The value was “enhance”.

Question: What about the “Fold change in EC50” value [3, 4] of the same compound?
Answer: Its value is 2.7.

Question: And the “% Imax” value [3, 5]?
Answer: The value was 82 ± 4%.
